Key:
MtMetAP1c = MtMetAP1c (Mycobacterium tuberculosis, UniProt P9WK19); assay: MetAP enzyme inhibition assay; assay type: biochemical
MtMetAP1a = MtMetAP1a (Mycobacterium tuberculosis, UniProt P9WK21); assay: MetAP enzyme inhibition assay; assay type: biochemical; settings: for selectivity for both MtMetAPs over human MetAPs: MtMetAP1a and MtMetAP1c relative to HsMetAP1 and HsMetAP2, from IC50 values
M. tuberculosis H37Rv = assay: Minimum Inhibitory Concentration in replicating M. tuberculosis; assay type: cell-based, Mycobacterium tuberculosis; settings: ratio of M.I.C. values
[1] = test system: aged non-growing M. tuberculosis H37Ra; assay: Activity on aged non-growing M. tuberculosis; settings: 2 month old H37Ra culture, acid 7H9 pH5.5, 1% oxygen

MtMetAP1a, sequence (P9WK21 whole entry): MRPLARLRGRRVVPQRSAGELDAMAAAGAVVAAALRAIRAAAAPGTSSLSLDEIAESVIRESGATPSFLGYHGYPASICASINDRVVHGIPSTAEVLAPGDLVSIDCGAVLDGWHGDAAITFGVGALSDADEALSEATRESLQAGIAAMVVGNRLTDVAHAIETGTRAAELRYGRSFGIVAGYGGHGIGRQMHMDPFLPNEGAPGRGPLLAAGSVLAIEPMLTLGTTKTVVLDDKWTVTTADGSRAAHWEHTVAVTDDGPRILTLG
MtMetAP1c, sequence (P9WK19 whole entry): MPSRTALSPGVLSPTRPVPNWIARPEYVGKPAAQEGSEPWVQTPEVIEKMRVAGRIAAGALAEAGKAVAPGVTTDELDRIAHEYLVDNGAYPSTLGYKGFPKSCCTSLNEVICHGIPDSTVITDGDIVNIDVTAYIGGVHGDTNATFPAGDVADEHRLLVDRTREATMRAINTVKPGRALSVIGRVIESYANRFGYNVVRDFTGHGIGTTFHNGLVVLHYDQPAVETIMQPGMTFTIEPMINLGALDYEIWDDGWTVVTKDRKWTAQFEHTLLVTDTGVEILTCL

SMILES | IC50 (MtMetAP1c) [µM] | IC50 (MtMetAP1a) [µM] | selectivity for both MtMetAPs over human MetAPs (MtMetAP1a) | potency in replicating M. tuberculosis culture relative to CQ (M. tuberculosis H37Rv) | M.I.C. Aged non-growing M. tuberculosis [1] [µg/mL]
Oc1c(Br)cc(Cl)c2cccnc12 [CLBQ14] | 4.92 | 5.44 | greater than 19 folds | two-fold | 0.65 to 1.62
Oc1c(I)cc(Cl)c2cccnc12 [Clioquinol (CQ), clioquinol, reference compound] | 11.2 | 9.25 | less than 10 folds |  | 
